# Reference: paper PMC4913896, “Bioactivity-Guided Identification of Botanical Inhibitors of Ketohexokinase” (PLoS ONE, 2016)
# Like-named read-outs stand apart in the source and are kept apart here.
# Target: T1, recombinant human KHKC (Homo sapiens, UniProt P50053)
# T1 construct: Profinity eXact fusion tag (N, cleaved yes); made in house; host or cells: E. coli BL21 (DE3), vector pPAL8; cDNA from Hep G2 cells
# T1 sequence (P50053 1-298): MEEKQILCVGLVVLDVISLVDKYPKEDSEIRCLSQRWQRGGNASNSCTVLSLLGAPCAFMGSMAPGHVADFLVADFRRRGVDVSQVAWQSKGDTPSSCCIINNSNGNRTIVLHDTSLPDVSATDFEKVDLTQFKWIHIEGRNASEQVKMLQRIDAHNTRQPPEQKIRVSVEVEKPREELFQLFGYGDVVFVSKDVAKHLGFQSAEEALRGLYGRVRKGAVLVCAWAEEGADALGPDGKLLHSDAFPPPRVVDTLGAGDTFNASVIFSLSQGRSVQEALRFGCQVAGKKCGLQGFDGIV
# Experiment: High throughput cell-free recombinant KHKC enzymatic assay (3-step reaction, decrease in NADH at A340nm)
# Format: biochemical
# Conditions: for inhibition at 50 µM: read-out: KHKC Inhibition (%)
# Experimental: Botanical extracts and phytochemicals were screened for their inhibitory activity using a high throughput cell-free enzymatic assay that utilized recombinant KHKC. KHKC activity was assayed with a 3-step reaction (Fig 2). The Synergy 2 multi-mode microplate reader was used to measure the decrease in NADH at A340nm (BioTek Instruments, Inc., Winooski, VT). For screening of the botanical extracts and phytochemicals, the KHKC enzymatic assay was carried out at 37°C in a total reaction volume of 200 ul containing 50 mM PIPES, 6 mM MgCl2, 100 mM KCl, 5 mM ATP, 2 mM phosphoenolpyruvate, 0.3 mM NADH, 15 U of pyruvate kinase, 15 U of lactate dehydrogenase, and 75 ng KHKC. The botanical extracts (50 μg/mL) and phytochemicals (50 μM) were preincubated in the reaction mixture for 15 min at 37°C. Afterwards, 1 mM fructose was added to the reactions, except for the no fructose controls, and A340nm data were collected every minute for 1 hr. The changes in absorbance were calculated for all samples based on the linear phase of the reactions and adjusted for the no fructose controls. Compared to the fructose only controls (1 mM fructose, no inhibitors), percentage inhibition of KHKC for each sample was calculated. […] For phytochemicals that inhibited KHKC by at least 40%, dose responses were conducted from 0.05 to 100 μM. IC50s against KHKC were calculated. 4-(hydroxymercuri) benzoic acid sodium salt was used as a positive inhibitory control of KHKC [36]. All chemicals were purchased from Sigma-Aldrich (St. Louis, MO).
# Recombinant human KHKC proteins: Recombinant human KHKC was produced using the Profinity eXact fusion-tag system (Bio-Rad Laboratories, Hercules, CA). RNA were isolated from Hep G2 cells. CDNA was generated using 1 μg of RNA (iScript cDNA synthesis kit, Bio-Rad Laboratories). The coding sequences of KHKC were amplified using iProof high-fidelity DNA polymerase (Bio-Rad Laboratories). The following primers were used: forward primer = 5’…[…]…3’ and reverse primer = 5’…[…]…3’. The amplicons were ligated into pPAL8, a bacterial expression vector. Sequencing, performed by Beckman Coulter Genomics (Danvers, MA), confirmed that the coding sequences of the KHKC clones were a match to the National Center for Biotechnology Information’s reference sequence. The clones were transformed into BL21 (DE3) chemi-competent expression cells (Bio-Rad Laboratories). E. coli cultures were grown at 37°C in terrific broth media containing 100 μg/mL ampicillin. When the cell density (OD600) reached 0.5–0.7, the expression of KHKC was induced by adding 1 mM isopropyl β-D-1-thiogalactopyranoside. After 3–4 hr incubation, the growth culture was centrifuged at 5,000 g for 10 min at 4°C and the pellet was stored at -80°C.
# For protein purification, the bacterial cell pellet was lysed using B-PER in phosphate buffer (Thermo Fisher Scientific Inc., Rockford, IL) containing AEBSF protease inhibitor (EMD Chemicals, Gibbstown, NJ). The lysate was centrifuged at 30,000 x g for 30 min at 4°C to remove cell debris. The supernatant was filtered using a […] syringe filter and then loaded (2.5 mL/min) onto the Bio-Scale Mini Profinity eXact cartridges using the Profinia protein purification instrument (Bio-Rad Laboratories). The column was first washed with 100 mL sodium phosphate, pH 7.0 (10 ml/min, CV = 10) followed by 400 mL sodium phosphate, pH 7.0 (10 ml/min, CV = 15). The protein was eluted with 100 mM sodium phosphate and 100 mM sodium fluoride, pH 7.2 and incubated for 4 hr at 4°C. The tag-less protein was stored in 20% glycerol and frozen at -80°C until use.
# GraphPad Prism 5.03 (GraphPad Software, La Jolla, CA) was utilized for the data and statistical analyses. To generate a best fit, an upper concentration (10,000 μg/mL at 100% inhibition) and a lower concentration (0.001 μg/mL at 0% inhibition) were added in order to calculate the IC50s for the inhibition of KHKC and for the inhibition of fructose-induced ATP depletion. […]
# [1] = phytochemical library screen, 50 μM, 1 mM fructose
# [2] = phytochemicals, dose response 0.05 to 100 μM, read-out: KHKC IC50
Compound,KHKC Inhibition (%) [1] [%],IC50 [2] [µM],inhibition at 50 µM [1] [%],IC50 [µM],inhibition at 50 µM [%]
"3,4',5,7-THMethoxy3'-O-B-D-Xylopyranoside",63.3,3.5,,,
"COc1cc(OC)c2ccc(=O)oc2c1CC=C(C)C [5,7-Dimethoxy-8-prenylcoumarin]",,10.3,70.4,,
O=C(O)[C@H]1O[C@@H](Oc2cc(O)c3c(=O)cc(-c4ccc(O)cc4)oc3c2)[C@H](O)[C@@H](O)[C@@H]1O [Apigenin 7-glucuronide],53.1,16.1,,,
O=c1cc(-c2ccc(O)cc2)oc2cc(O[C@@H]3O[C@H](CO)[C@@H](O)[C@H](O)[C@H]3O[C@@H]3OC[C@](O)(CO)[C@H]3O)cc(O)c12 [Apiin],,21.5,47,,
COc1c(O)cc2c(=O)c3c(O)cc(O)c(CC=C(C)C)c3oc2c1CC=C(C)C [Cratoxyarborenone E],,1,61.7,,
CC(C)=CCc1c(O)ccc(C(=O)/C=C/c2ccc(O)cc2)c1O [Isobavachalcone],,5.7,44.2,,
CC(C)=CCc1c(-c2ccc(O)cc2O)oc2c(CC=C(C)C)c(O)cc(O)c2c1=O [Mulberrin],61.2,31.2,,,
COc1c(O)cc2oc(-c3ccccc3)cc(=O)c2c1O [Oroxylin A],,8.2,42.1,,
CC(C)=CCc1c(O)ccc2ccc(=O)oc12 [Osthenol],,,,7.8,74.1
COc1ccc2ccc(=O)oc2c1CC=C(C)C [Osthole],,0.7,93.4,,
Flavaspidic acid AB,48.7,29.5,,,
Methoxy isobavachalcone,70.8,0.2,,,
Swietenocoumarin B,62.5,58.4,,,
α-/γ-Mangostin,90.4,1.5,,,
